In ChEMBL document CHEMBL1154885, “Heat shock protein 90: inhibitors in clinical trials” (J Med Chem, 2010):
≈ marks a conversion by molar mass, not a printed value.

How the values were obtained:
[1] = molecular target: Heat shock protein HSP 90-beta (Homo sapiens, UniProt P08238)
Description: Inhibition of HSP90-mediated client protein HER2 degradation

[2] = Solubility in water; assay type: physicochemical
[3] = Cmax in plasma of mouse bearing human A2780 cells at 80 mg/kg, ip administered as DMSO/egg phospholipid formulation; assay type: ADME, organism-based; design: dose 80 mg/kg, route intraperitoneal
[4] = Cmax in tumor of mouse bearing human A2780 cells at 80 mg/kg, ip administered as DMSO/egg phospholipid formulation; assay type: ADME, organism-based, Neoplasm; design: dose 80 mg/kg, route intraperitoneal; details: read-out: Cmax_tumor
[5] = Cmax in liver of mouse bearing human A2780 cells at 80 mg/kg, ip administered as DMSO/egg phospholipid formulation; assay type: ADME, organism-based; design: dose 80 mg/kg, route intraperitoneal
[6] = AUC in plasma of mouse bearing human A2780 cells at 80 mg/kg, ip administered as DMSO/egg phospholipid formulation; assay type: ADME, organism-based; design: dose 80 mg/kg, route intraperitoneal
[7] = AUC in tumor of mouse bearing human A2780 cells at 80 mg/kg, ip administered as DMSO/egg phospholipid formulation; assay type: ADME, organism-based, Neoplasm; design: dose 80 mg/kg, route intraperitoneal
[8] = AUC in liver of mouse bearing human A2780 cells at 80 mg/kg, ip administered as DMSO/egg phospholipid formulation; assay type: ADME, organism-based; design: dose 80 mg/kg, route intraperitoneal
Plasma = test: Apparent volume of distribution in plasma of mouse bearing human A2780 cells at 80 mg/kg, ip administered as DMSO/egg phospholipid formulation; assay type: ADME, organism-based; design: dose 80 mg/kg, route intraperitoneal; details: in vivo
[9] = Apparent volume of distribution in tumor of mouse bearing human A2780 cells at 80 mg/kg, ip administered as DMSO/egg phospholipid formulation; assay type: ADME, organism-based, Neoplasm; design: dose 80 mg/kg, route intraperitoneal; details: in vivo
Liver [10] = test: Apparent volume of distribution in liver of mouse bearing human A2780 cells at 80 mg/kg, ip administered as DMSO/egg phospholipid formulation; assay type: ADME, organism-based; design: dose 80 mg/kg, route intraperitoneal; details: in vivo
[11] = Clearance in plasma of mouse bearing human A2780 cells at 80 mg/kg, ip administered as DMSO/egg phospholipid formulation; assay type: ADME, organism-based; design: dose 80 mg/kg, route intraperitoneal
[12] = Clearance in tumor of mouse bearing human A2780 cells at 80 mg/kg, ip administered as DMSO/egg phospholipid formulation; assay type: ADME, organism-based, Neoplasm; design: dose 80 mg/kg, route intraperitoneal; details: in vivo
Liver [13] = test: Clearance in liver of mouse bearing human A2780 cells at 80 mg/kg, ip administered as DMSO/egg phospholipid formulation; assay type: ADME, organism-based; design: dose 80 mg/kg, route intraperitoneal; details: in vivo
[14] = Half life in plasma of mouse bearing human A2780 cells at 80 mg/kg, ip administered as DMSO/egg phospholipid formulation; assay type: ADME, organism-based; design: dose 80 mg/kg, route intraperitoneal
[15] = Half life in tumor of mouse bearing human A2780 cells at 80 mg/kg, ip administered as DMSO/egg phospholipid formulation; assay type: ADME, organism-based, Neoplasm; design: dose 80 mg/kg, route intraperitoneal
[16] = Half life in liver of mouse bearing human A2780 cells at 80 mg/kg, ip administered as DMSO/egg phospholipid formulation; assay type: ADME, organism-based; design: dose 80 mg/kg, route intraperitoneal
A2780 = test: Antitumor activity against human A2780 cells xenografted in mouse at 80 mg/kg, ip administered as DMSO/egg phospholipid formulation; assay type: functional; details: route intraperitoneal, read-out: TGI
[17] = Cmax in human at 220 mg/m2 administered as DMSO/egg phospholipid formulation; assay type: ADME, organism-based; details: in vivo
[18] = Half life in human at 220 mg/m2 administered as DMSO/egg phospholipid formulation; assay type: ADME, organism-based; details: in vivo
[19] = AUC in human at 220 mg/m2 administered as DMSO/egg phospholipid formulation; assay type: ADME, organism-based; details: plasma
[20] = Clearance in human at 220 mg/m2 administered as DMSO/egg phospholipid formulation; assay type: ADME, organism-based; details: in vivo
Homo sapiens [21] = test: Toxicity in human assessed as maximum tolerated dose administered on daily schedule administered as DMSO/egg phospholipid formulation; assay type: organism-based; details: in vivo
Homo sapiens [22] = test: Toxicity in human assessed as maximum tolerated dose administered on 3 days schedule administered as DMSO/egg phospholipid formulation; assay type: organism-based; details: in vivo, 72 h
NCI-H1650 = test: Antitumor activity against human NCI-H1650 cells xenografted in mouse at 100 mg/kg administered daily for 5 days a week; assay type: functional; details: NCI-H1650, 120 h, read-out: TGI
[23] = Chemical stability assessed as half life; assay type: physicochemical

Heat shock protein HSP 90-beta, sequence (P08238 whole entry): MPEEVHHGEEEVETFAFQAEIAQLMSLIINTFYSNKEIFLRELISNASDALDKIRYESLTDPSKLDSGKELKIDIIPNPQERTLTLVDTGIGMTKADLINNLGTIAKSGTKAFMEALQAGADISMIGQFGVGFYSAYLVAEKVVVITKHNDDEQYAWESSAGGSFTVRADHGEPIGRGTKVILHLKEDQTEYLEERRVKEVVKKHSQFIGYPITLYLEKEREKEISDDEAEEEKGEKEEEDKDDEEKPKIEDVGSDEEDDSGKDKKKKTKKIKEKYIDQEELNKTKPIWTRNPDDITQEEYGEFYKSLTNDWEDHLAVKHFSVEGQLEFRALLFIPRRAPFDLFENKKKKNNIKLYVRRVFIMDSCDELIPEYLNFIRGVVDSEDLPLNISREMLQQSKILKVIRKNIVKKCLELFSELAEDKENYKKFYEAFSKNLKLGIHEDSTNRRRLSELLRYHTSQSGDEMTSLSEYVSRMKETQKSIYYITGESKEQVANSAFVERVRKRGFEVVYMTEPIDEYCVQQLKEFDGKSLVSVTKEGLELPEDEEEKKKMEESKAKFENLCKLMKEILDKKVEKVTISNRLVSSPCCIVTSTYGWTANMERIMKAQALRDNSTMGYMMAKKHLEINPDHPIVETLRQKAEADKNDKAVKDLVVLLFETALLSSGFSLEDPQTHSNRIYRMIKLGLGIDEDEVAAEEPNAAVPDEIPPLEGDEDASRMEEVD

Q: With `CCOP(=O)(CCn1c(Sc2nc3cccc(Cl)c3s2)nc2c(N)ncnc21)OCC` as the molecule, how does the Activity [1] read?
A: Its Activity is 30 nM.

Q: With `C=CCNC1=C2C[C@@H](C)C[C@H](OC)[C@H](O)[C@@H](C)/C=C(\C)[C@H](OC(N)=O)[C@@H](OC)/C=C\C=C(/C)C(=O)NC(=CC1=O)C2=O` [TANESPIMYCIN] as the molecule, how does the solubility [2] read?
A: The solubility was 20 µg/mL (≈ 34.1 µM).

Q: And the Cmax [3]?
A: The Cmax was 35 µM.

Q: And the Cmax [4]?
A: The Cmax was 15 µM.

Q: And the Cmax [5]?
A: Its Cmax is 126 µM.

Q: And the AUC [6]?
A: Its AUC is 68 µM·h.

Q: What about the AUC [7] of the same molecule?
A: Its AUC is 80 µM·h.

Q: And the AUC [8]?
A: Its AUC is 263 µM·h.

Q: And the Vz (Plasma)?
A: The Vz was 0.05 L.

Q: And the Vz [9]?
A: The Vz was 0.34 L.

Q: And the Vz (Liver [10])?
A: Its Vz is 0.01 L.

Q: And the CL/F [11]?
A: The CL/F was 0.667 mL/min.

Q: And the CL [12]?
A: Its CL is 0.03 L/h.

Q: What about the CL (Liver [13]) of the same molecule?
A: The CL was 0.01 L/h.

Q: What about the half-life [14] of the same molecule?
A: The half-life was 0.88 h.

Q: And the half-life [15]?
A: The half-life was 7.5 h.

Q: And the half-life [16]?
A: Its half-life is 0.86 h.

Q: What about the inhibition in vivo at 80 mg/kg (A2780) of the same molecule?
A: Its inhibition in vivo at 80 mg/kg is 70%.

Q: And the Cmax [17]?
A: The Cmax was 7.5 µM.

Q: And the half-life [18]?
A: Its half-life is 3.8 h.

Q: What about the AUC [19] of the same molecule?
A: Its AUC is 22 µM·h.

Q: And the clearance [20]?
A: The clearance was 700 mL/min.

Q: What about the MTD (Homo sapiens [21]) of the same molecule?
A: The MTD was 56 mg/m2.

Q: And the MTD (Homo sapiens [22])?
A: Its MTD is 220 mg/m2.

Q: And the inhibition in vivo at 100 mg/kg (NCI-H1650)?
A: The inhibition in vivo at 100 mg/kg was 30%.

Q: And the half-life [23]?
A: The half-life was 9.8 h.
